assay: Waters ACQUITY UPLC BEH C18, 100 × 2.1 mm, 1.7 µm, 40 °C, 0.28 mL/min, estimated dead time 0.63 min; A: water + 6.5 mM ammonium hydroxide; B: methanol + 6.5 mM ammonium hydroxide; gradient (min/%B) 0/0.5 4/70 4.5/98 5.4/98; details: stereoisomer not certain

LC retention time [min]	SMILES
2.95	CC(C)=CC(=O)SCCNC(=O)CCNC(=O)C(O)C(C)(C)COP(=O)(O)OP(=O)(O)OCC1OC(n2cnc3c(N)ncnc32)C(O)C1OP(=O)(O)O (centres undefined)
0.828	O=C(CO)C(OC1OC(CO)C(O)C(O)C1O)C(O)C(O)CO (centres undefined)
0.923	Nc1nc2c(ncn2C2CC(O)C(COP(=O)(O)O)O2)c(=O)[nH]1 (centres undefined)
4.4	O=CCc1c[nH]c2ccccc12
0.855	O=c1[nH]cc(CO)c(=O)[nH]1
1.1	O=C(O)Cc1ccc(O)c(O)c1
4.3	O=C(O)c1ccc2ccccc2c1O
1.91	O=C(O)CNC(=O)c1cccc(O)c1
0.839	O=CC(O)C(O)C(O)CO (centres undefined)
0.979	COC1OC(CO)C(O)C(O)C1O (centres undefined)
4.23	CCCC(CCC)C(=O)O
5.27	CC(C)Cc1ccc(C(C)C(=O)O)cc1 (centres undefined)
0.845	NC(N)=NCCCC(N)C(=O)O (centres undefined)
2.9	O=C(O)c1c(O)cccc1O
4.99	CC(CCC(=O)O)C1CCC2C3C(O)CC4CC(O)CCC4(C)C3CC(O)C12C (centres undefined)
0.78	NCC(O)CCC(N)C(=O)O (centres undefined)
0.849	NC(Cc1cnc[nH]1)C(=O)O (centres undefined)
0.929	NC(CCSSCCC(N)C(=O)O)C(=O)O (centres undefined)
3.06	CC(C)CCC(=O)O
4.82	CCCC(=O)Nc1ccc(OCC(O)CNC(C)C)c(C(C)=O)c1 (centres undefined)
0.9	NCCC(=O)NC(Cc1cnc[nH]1)C(=O)O (centres undefined)
0.768	NCC(N)C(=O)O (centres undefined)

LC retention time [min]	SMILES
4.67	[2H]C([2H])([2H])C([2H])([2H])C([2H])([2H])C([2H])([2H])C([2H])([2H])C([2H])([2H])C([2H])([2H])C(=O)O
0.761	NCCC(=O)O
2.51	COc1cc(C=O)ccc1O
1.5	CSCCC(O)C(=O)O (centres undefined)
2.48	O=C(O)CNC(=O)c1ccccc1O
0.832	O=C(O)c1cc(O)cc(O)c1
3	O=C(O)C(=O)Cc1c[nH]c2ccccc12
0.945	OCCNCCO
2.66	COc1ccc(CC(=O)O)cc1OC
0.924	Nc1ncnc2c1ncn2C1OC(COP(=O)(O)OP(=O)(O)OCC2OC(O)C(O)C2O)C(O)C1O (centres undefined)
0.798	CC(CO)C(=O)O (centres undefined)
0.762	NC(CCO)C(=O)O (centres undefined)
5.12	O=S(=O)(O)c1cccc2cccc(Nc3ccccc3)c12
1.59	O=C(O)C(O)c1ccccc1 (centres undefined)
0.862	O=C1OC(C(O)CO)C(=O)C1=O (centres undefined)
1.2	CC(C)(O)CC(=O)O
2.48	CC(C)CC(=O)C(=O)O
1.63	O=C(O)c1cc(O)ccc1O
0.848	COc1cc(CC(=O)O)ccc1OS(=O)(=O)O
0.761	NC(CO)C(=O)O (centres undefined)
1.23	C[N+](C)(C)CC(O)CC(=O)[O-] (centres undefined)
1.61	CC=C(C)C(=O)O

LC retention time [min]	SMILES
4.48	CCCCC(=O)N(Cc1ccc(-c2ccccc2-c2nn[nH]n2)cc1)C(C(=O)O)C(C)C (centres undefined)
2.68	CC([NH3+])C(=O)NCC(=O)[O-] (centres undefined)
0.858	Nc1ncnc2c1ncn2C1OC(COP(=O)(O)O)C(O)C1O (centres undefined)
1	CC(C)C(N)C(=O)O (centres undefined)
0.969	Cn1cncc1CC(N)C(=O)O (centres undefined)
4.74	CCCCCCCC(=O)O
2.93	O=C(O)CCc1ccccc1O
0.928	OCC1OC(OCC2OC(OCC3OC(OC4(CO)OC(CO)C(O)C4O)C(O)C(O)C3O)C(O)C(O)C2O)C(O)C(O)C1O (centres undefined)
0.776	O=C(O)C1CCC(O)CC1 (centres undefined)
0.866	O=S(=O)(O)CCO
1.79	O=C(O)Cc1cccc(O)c1
2.93	OCc1cccc(O)c1
0.794	NCCCCC(N)C(=O)O (centres undefined)
0.816	O=C(CO)C(O)C(O)C(O)CO (centres undefined)
0.87	CC(=O)CCC(=O)O
0.923	Cc1cn(C2CC(O)C(COP(=O)(O)OP(=O)(O)OC3OC(CO)C(O)C(O)C3O)O2)c(=O)[nH]c1=O (centres undefined)
2.04	CC(=O)C1C(=O)C=C(C)OC1=O (centres undefined)
0.778	CNCC(=O)O
0.842	CCC(O)C(=O)O (centres undefined)
1.7	CC(C)(CO)C(O)C(=O)NCCC(=O)O (centres undefined)
3.95	O=C(O)CCCCC1CCSS1 (centres undefined)
2.5	O=C(O)CCc1ccc(O)cc1

LC retention time [min]	SMILES
0.858	NC(=O)c1ncn(C2OC(CO)C(O)C2O)n1 (centres undefined)
0.977	O=c1[nH]c(=O)c2[nH]cnc2[nH]1
2.28	CC=CC=CC(=O)O
0.884	O=CC(O)C1OC(=O)C(O)C1O (centres undefined)
2.93	Oc1ccccc1O
1.28	NC(CO)Cc1cnc[nH]1 (centres undefined)
0.901	NC(=O)C1=CN(C2OC(COP(=O)(O)OP(=O)(O)OCC3OC(n4cnc5c(N)ncnc54)C(O)C3O)C(O)C2O)C=CC1 (centres undefined)
3.74	CCC(C(=O)O)c1ccccc1 (centres undefined)
0.802	NC1C(O)OC(CO)C(O)C1O (centres undefined)
5.33	CCCCC(CC)CCC(=O)O (centres undefined)
2.35	CC(=O)S
0.835	CC(=O)NC(CCC(N)=O)C(=O)O (centres undefined)
4.14	COC(=O)Cc1ccc(O)cc1
2.59	O=S(=O)(O)Oc1c[nH]c2ccccc12
2.26	O=C(O)C(=O)c1ccccc1
0.809	C[N+](C)(C)CC(=O)[O-]
1.15	CC(=O)NC(CS)C(=O)O (centres undefined)
0.857	CCC(CO)C(=O)O (centres undefined)
5.32	CCCCC1=NC2(CCCC2)C(=O)N1Cc1ccc(-c2ccccc2-c2nn[nH]n2)cc1
0.946	NC(CS)C(=O)NCC(=O)O (centres undefined)
1.81	OCC1OC(Oc2ccc(O)cc2)C(O)C(O)C1O (centres undefined)
2.78	CC(=O)OCc1ccccc1

LC retention time [min]	SMILES
3.14	O=C(C=Cc1ccc(O)c(O)c1)OC(Cc1ccc(O)c(O)c1)C(=O)O (centres undefined)
3.06	CC(=O)Oc1cccc(O)c1
1.56	O=C(O)c1cccc(O)c1O
2.46	O=C(O)Cc1ccccc1O
0.797	O=C(O)c1ccc(O)c(O)c1
2.24	O=C(O)CCc1cccc(O)c1
3.86	CNC(=C[N+](=O)[O-])NCCSCc1csc(CN(C)C)n1
4.33	Cc1ccc(O)c([N+](=O)[O-])c1
1.97	CCC(C)C(O)C(=O)O (centres undefined)
3.64	CC1=C(CCC(=O)O)c2cc3nc(cc4[nH]c(cc5[nH]c(cc1n2)c(C)c5CCC(=O)O)c(CCC(=O)O)c4C)C(CCC(=O)O)=C3C
0.853	CC(C)(COP(=O)(O)OP(=O)(O)OCC1OC(n2cnc3c(N)ncnc32)C(O)C1OP(=O)(O)O)C(O)C(=O)NCCC(=O)NCCS (centres undefined)
0.869	CC=CC(=O)O
2.37	NC(Cc1ccccc1)C(=O)O (centres undefined)
3.5	O=C(CCc1ccc(O)cc1)c1c(O)cc(O)cc1OC1OC(CO)C(O)C(O)C1O (centres undefined)
0.764	NC(=O)CCC(N)C(=O)O (centres undefined)
3.86	O=C(O)CCCc1ccccc1
0.837	C[N+](C)(C)CCCCC(N)C(=O)[O-] (centres undefined)
0.826	O=C(O)CCCCCCC(=O)O
4.06	CCCCCCC(=O)O
0.848	O=C(O)C(O)c1cccc(O)c1 (centres undefined)

SMILES	LC retention time [min]
O=C(O)CCCCCCCCCCCO	4.86
N#CCc1c[nH]c2ccccc12	4.53
Oc1cccc2cccnc12	4.19

assay: RP, Waters ACQUITY UPLC HSS C18, 100 × 2.1 mm, 1.7 µm, 40 °C, 0.35 mL/min, estimated dead time 0.63 min; A: water + 0.1% formic acid; B: methanol + 0.1% formic acid; gradient (min/%B) 0/0.5 4/70 4.5/98 5.4/98; details: stereoisomer not certain

LC retention time [min]	SMILES
3.07	CC(C)CC(=O)NCC(=O)O
3.62	COc1ccc(-c2oc3cc(O)ccc3c(=O)c2O)cc1O
4.42	COc1ccc2nc(S(=O)Cc3ncc(C)c(OC)c3C)[nH]c2c1 (centres undefined)
0.846	CC(=O)NC1C(O)CC(O)(C(=O)O)OC1C(O)C(O)CO (centres undefined)
1.1	Nc1ccn(C2CC(O)C(COP(=O)(O)O)O2)c(=O)n1 (centres undefined)
0.798	NC(CS)C(=O)O (centres undefined)
3.23	O=C(O)CNC(=O)c1ccccc1
4.32	CCOC(=O)CC(=O)OCC
3.35	CC(C)C(O)(CC(=O)O)C(=O)O (centres undefined)
4.37	CN(C)CCOC(c1ccccc1)c1ccccc1
0.778	O=P(O)(O)OCC1OC(O)C(O)C1O (centres undefined)
4.46	C=Cc1ccc(O)cc1
1.35	O=C(O)c1cccnc1C(=O)O
3.23	O=C(O)Cc1ccc(O)cc1
1.73	O=C(O)CCC(=O)O
0.911	CNCC(O)c1ccc(O)c(O)c1 (centres undefined)
1.11	NC(=O)c1ncn(C2OC(COP(=O)(O)O)C(O)C2O)c1N (centres undefined)
0.764	C[N+](C)(C)CCOP(=O)([O-])OCC(O)CO (centres undefined)
1.02	O=S(=O)(O)c1ccc(O)cc1
4.33	CC(C)NCC(O)COc1cccc2ccccc12 (centres undefined)
4.38	O=C(O)C=Cc1cccc(O)c1
3.24	O=Cc1ccccc1C(=O)O

SMILES	LC retention time [min]
CN1C2CCC1CC(OC(=O)C(CO)c1ccccc1)C2 (centres undefined)	3.22

Reference: the RepoRT retention time repository (doi:10.1038/s41586-021-03707-9)
